Assay results published in patent US10639303B2, “Alkaloids and their preparation and application as anti-HSV-1 agents” (OCEAN UNIVERSITY OF CHINA, priority 2015, dated 2020).
Like-named read-outs stand apart in the source and are kept apart here.

Tests used:
HSV-1 = test: cytopathic effects (CPE) assay, antiviral activity against HSV-1 in Hep-2 cells; assay type: cell-based, Herpes Simplex Virus 1; conditions: Human alphaherpesvirus 1; HSV-1-infected Hep-2 cells, neutral red OD 540 nm, Reed-Muench; read-out: IC50 (anti-HSV-1 activity)
Protocol: The antiviral activities against HSV-1 were evaluated by a cytopathic effects (CPE) assay. Hep-2 monolayer cells were cultured with trypsin enzyme-digesting technique and transferred to 96-well plates. The HSV-1 virus was seeded in Hep-2 cells in 96-well plates, with 2% RPMI-1640 medium, and incubated at 37° C., 5% CO2. After more than 90% lesions, the virus-infected cells were repeatedly frozen and thawed 3 times, centrifuged, quantitative packed and stored at −80° C. Each tested compound was dissolved in 10 μl DMSO to make a homogeneous solution and the solution was diluted 10 times by half-and-half dilution with 2% RPMI-1640 medium. The gradient solution was added to the infected cells incubated in 96-well plates, Ribavirin was used as positive control. Normal cells were used as blank control. Infected cells were used as negative control. All samples were incubated at 37° C., 5% CO2. Pathological changes were observed once every hour, for 24 h. After 90% lesions in negative control, 1% neutral red was added after removal of liquid in 96-well plates. The OD value was determined at 540 nm. IC50 values of tested compounds were calculated by Reed-Muench methods.

[1] = cytotoxicity (TC50) accompanying the CPE assay; assay type: cell-based; conditions: human

SMILES	IC50 (HSV-1) [µM]	CC50 at 24 h ([1]; Hep-2 cells, read-out: TC50) [µM]	CC50 at 24 h [1] [µM]
NC(=O)c1ncn([C@@H]2O[C@H](CO)[C@@H](O)[C@H]2O)n1 [Ribavirin, reference compound]	78	> 10000	
C=C(C)[C@@H]1CC[C@](C)(/C=C/c2ccc3c(c2O)[C@@](O)(c2ccccc2)[C@H](OC)C(=O)N3)O1	0.07		64.9
CO[C@@H]1C(=O)Nc2ccc(/C=C/[C@]3(C)CC[C@H](O)[C@@H](C)C3)c(O)c2[C@@]1(O)c1ccccc1	0.21		36.9
